Laboratory results taken from ChEMBL document CHEMBL1201862, “PubChem BioAssay data set” (2004).
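1) Cells in 96-well plates. 2) Compound, 48 h, 5 concentrations. 3) Linear interpolation between surrounding doses. 4) Unreached endpoint = highest concentration. At the GI50, growth is halved.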 The source made the active and inactive calls. Cut-off read from the data, not from the text of the source: active = GI50 up to about 1.1 µM and inactive = higher.

Tests used:
Experiment in all cases: inhibition of tumour cell growth, NCI panel, 48 h
[1] = test system: NCI-H522
[2] = test system: UACC-62
[3] = test system: SF-539
[4] = test system: DMS-114
[5] = test system: HCT-116
[6] = test system: KM12
[7] = test system: EKVX
[8] = test system: LOX IMVI
[9] = test system: SNB-19
[10] = test system: CAKI-1
[11] = test system: 786-0
[12] = test system: NCI-H23
[13] = test system: UO-31
[14] = test system: HCC 2998
[15] = test system: NCI-H226
[16] = test system: M19-MEL
[17] = test system: LXFL 529
[18] = test system: OVCAR-8
[19] = test system: DLD-1
[20] = test system: U-251
[21] = test system: SF-268
[22] = test system: RXF 393
[23] = test system: OVCAR-4
[24] = test system: A549
[25] = test system: SK-MEL-5
[26] = test system: M14
[27] = test system: TK-10
[28] = test system: CCRF-CEM
[29] = test system: MOLT-4
[30] = test system: SK-OV-3
[31] = test system: DMS-273
[32] = test system: K562
[33] = test system: HOP-62
[34] = test system: SNB-75
[35] = test system: HOP-92
[36] = test system: IGROV-1
[37] = test system: SR
[38] = test system: COLO 205
[39] = test system: SN12C
[40] = test system: SK-MEL-2
[41] = test system: OVCAR-3
[42] = test system: XF498
[43] = test system: Malme-3M
[44] = test system: ACHN
[45] = test system: OVCAR-5
[46] = test system: HT-29
[47] = test system: NCI-H460
[48] = test system: SK-MEL-28
[49] = test system: SF-295
[50] = test system: SW-620
[51] = test system: SNB-78
[52] = test system: HOP-18
[53] = test system: RPMI-8226
[54] = test system: HCT-15
[55] = test system: UACC-257
[56] = test system: KM-20L2
[57] = test system: HL-60
[58] = test system: A498

SMILES: CN(C)CCCn1cnc2ncccc2c1=O
- GI50 [1]: > 100 µM (inactive)
- GI50 [2]: > 100 µM (inactive)
- GI50 [3]: > 100 µM (inactive)
- GI50 [4]: 48.5 µM (inactive)
- GI50 [5]: > 100 µM (inactive)
- GI50 [6]: > 100 µM (inactive)
- GI50 [7]: > 100 µM (inactive)
- GI50 [8]: > 100 µM (inactive)
- GI50 [9]: > 100 µM (inactive)
- GI50 [10]: > 100 µM (inactive)
- GI50 [11]: > 100 µM (inactive)
- GI50 [12]: > 100 µM (inactive)
- GI50 [13]: > 100 µM (inactive)
- GI50 [14]: > 100 µM (inactive)
- GI50 [15]: > 100 µM (inactive)
- GI50 [16]: > 100 µM (inactive)
- GI50 [17]: > 100 µM (inactive)
- GI50 [18]: > 100 µM (inactive)
- GI50 [19]: > 100 µM (inactive)
- GI50 [20]: > 100 µM (inactive)
- GI50 [21]: > 100 µM (inactive)
- GI50 [22]: > 100 µM (inactive)
- GI50 [23]: > 100 µM (inactive)
- GI50 [24]: > 100 µM (inactive)
- GI50 [25]: > 100 µM (inactive)
- GI50 [26]: > 100 µM (inactive)
- GI50 [27]: > 100 µM (inactive)
- GI50 [28]: > 100 µM (inactive)
- GI50 [29]: > 100 µM (inactive)
- GI50 [30]: > 100 µM (inactive)
- GI50 [31]: > 100 µM (inactive)
- GI50 [32]: > 100 µM (inactive)
- GI50 [33]: > 100 µM (inactive)
- GI50 [34]: > 100 µM (inactive)
- GI50 [35]: > 100 µM (inactive)
- GI50 [36]: > 100 µM (inactive)
- GI50 [37]: > 100 µM (inactive)
- GI50 [38]: 55.1 µM (inactive)
- GI50 [39]: > 100 µM (inactive)
- GI50 [40]: > 100 µM (inactive)
- GI50 [41]: > 100 µM (inactive)
- GI50 [42]: > 100 µM (inactive)
- GI50 [43]: > 100 µM (inactive)
- GI50 [44]: > 100 µM (inactive)
- GI50 [45]: > 100 µM (inactive)
- GI50 [46]: > 100 µM (inactive)
- GI50 [47]: > 100 µM (inactive)
- GI50 [48]: > 100 µM (inactive)
- GI50 [49]: > 100 µM (inactive)
- GI50 [50]: > 100 µM (inactive)
- GI50 [51]: > 100 µM (inactive)

SMILES: CCNC(C)Cc1ccccc1 (stereo unspecified)
- GI50 [1]: > 100 µM (inactive)
- GI50 [2]: > 100 µM (inactive)
- GI50 [3]: > 100 µM (inactive)
- GI50 [4]: > 100 µM (inactive)
- GI50 [5]: > 100 µM (inactive)
- GI50 [6]: > 100 µM (inactive)
- GI50 [7]: > 100 µM (inactive)
- GI50 [8]: > 100 µM (inactive)
- GI50 [9]: > 100 µM (inactive)
- GI50 [10]: > 100 µM (inactive)
- GI50 [11]: > 100 µM (inactive)
- GI50 [12]: > 100 µM (inactive)
- GI50 [52]: > 100 µM (inactive)
- GI50 [13]: > 100 µM (inactive)
- GI50 [14]: > 100 µM (inactive)
- GI50 [15]: > 100 µM (inactive)
- GI50 [17]: > 100 µM (inactive)
- GI50 [18]: > 100 µM (inactive)
- GI50 [19]: > 100 µM (inactive)
- GI50 [20]: > 100 µM (inactive)
- GI50 [21]: > 100 µM (inactive)
- GI50 [53]: > 100 µM (inactive)
- GI50 [54]: > 100 µM
- GI50 [22]: > 100 µM (inactive)
- GI50 [23]: > 100 µM (inactive)
- GI50 [24]: > 100 µM (inactive)
- GI50 [25]: > 100 µM (inactive)
- GI50 [26]: > 100 µM (inactive)
- GI50 [27]: > 100 µM (inactive)
- GI50 [28]: > 100 µM (inactive)
- GI50 [30]: > 100 µM (inactive)
- GI50 [31]: > 100 µM (inactive)
- GI50 [32]: > 100 µM (inactive)
- GI50 [33]: > 100 µM (inactive)
- GI50 [34]: 6.71 µM (inactive)
- GI50 [35]: > 100 µM (inactive)
- GI50 [36]: > 100 µM (inactive)
- GI50 [37]: > 100 µM (inactive)
- GI50 [38]: > 100 µM (inactive)
- GI50 [39]: > 100 µM (inactive)
- GI50 [55]: > 100 µM (inactive)
- GI50 [40]: > 100 µM (inactive)
- GI50 [41]: > 100 µM (inactive)
- GI50 [43]: > 100 µM (inactive)
- GI50 [44]: > 100 µM (inactive)
- GI50 [45]: > 100 µM (inactive)
- GI50 [56]: > 100 µM (inactive)
- GI50 [57]: > 100 µM (inactive)
- GI50 [46]: > 100 µM (inactive)
- GI50 [58]: > 100 µM (inactive)
- GI50 [47]: > 100 µM (inactive)
- GI50 [48]: > 100 µM (inactive)
- GI50 [49]: > 100 µM (inactive)
- GI50 [50]: > 100 µM (inactive)
- GI50 [51]: > 100 µM (inactive)

SMILES: O=C(Nc1cccc(C(F)(F)F)c1)c1cc(-c2ccccc2)nc(S)n1
- GI50 [5]: > 100 µM (inactive)
- GI50 [6]: > 100 µM (inactive)
- GI50 [8]: > 100 µM (inactive)
- GI50 [9]: > 100 µM (inactive)
- GI50 [10]: > 100 µM (inactive)
- GI50 [52]: > 100 µM (inactive)
- GI50 [13]: > 100 µM (inactive)
- GI50 [14]: > 100 µM (inactive)
- GI50 [15]: > 100 µM (inactive)
- GI50 [16]: > 100 µM (inactive)
- GI50 [17]: > 100 µM (inactive)
- GI50 [18]: > 100 µM (inactive)
- GI50 [54]: > 100 µM
- GI50 [23]: > 100 µM (inactive)
- GI50 [26]: > 100 µM (inactive)
- GI50 [31]: > 100 µM (inactive)
- GI50 [33]: > 100 µM (inactive)
- GI50 [35]: > 100 µM (inactive)
- GI50 [37]: > 100 µM (inactive)
- GI50 [38]: > 100 µM (inactive)
- GI50 [39]: > 100 µM (inactive)
- GI50 [55]: > 100 µM (inactive)
- GI50 [40]: > 100 µM (inactive)
- GI50 [41]: > 100 µM (inactive)
- GI50 [43]: > 100 µM (inactive)
- GI50 [45]: > 100 µM (inactive)
- GI50 [56]: > 100 µM (inactive)
- GI50 [57]: > 100 µM (inactive)
- GI50 [46]: > 100 µM (inactive)
- GI50 [47]: > 100 µM (inactive)
- GI50 [49]: > 100 µM (inactive)
- GI50 [50]: > 100 µM (inactive)

SMILES: O=C1NC(=O)C2C(=O)NC(=O)C1C2(c1ccccc1)c1ccc(Cl)cc1 (stereo unspecified)
- GI50 [1]: > 100 µM (inactive)
- GI50 [2]: > 100 µM (inactive)
- GI50 [3]: > 100 µM (inactive)
- GI50 [6]: > 100 µM (inactive)
- GI50 [7]: > 100 µM (inactive)
- GI50 [8]: > 100 µM (inactive)
- GI50 [9]: > 100 µM (inactive)
- GI50 [10]: > 100 µM (inactive)
- GI50 [11]: > 100 µM (inactive)
- GI50 [12]: > 100 µM (inactive)
- GI50 [13]: > 100 µM (inactive)
- GI50 [14]: > 100 µM (inactive)
- GI50 [15]: > 100 µM (inactive)
- GI50 [16]: > 100 µM (inactive)
- GI50 [17]: > 100 µM (inactive)
- GI50 [18]: > 100 µM (inactive)
- GI50 [19]: > 100 µM (inactive)
- GI50 [21]: > 100 µM (inactive)
- GI50 [53]: > 100 µM (inactive)
- GI50 [54]: > 100 µM
- GI50 [22]: > 100 µM (inactive)
- GI50 [23]: > 100 µM (inactive)
- GI50 [24]: > 100 µM (inactive)
- GI50 [25]: > 100 µM (inactive)
- GI50 [26]: > 100 µM (inactive)
- GI50 [27]: > 100 µM (inactive)
- GI50 [28]: > 100 µM (inactive)
- GI50 [29]: > 100 µM (inactive)
- GI50 [30]: > 100 µM (inactive)
- GI50 [31]: > 100 µM (inactive)
- GI50 [32]: > 100 µM (inactive)
- GI50 [33]: > 100 µM (inactive)
- GI50 [34]: > 100 µM (inactive)
- GI50 [35]: > 100 µM (inactive)
- GI50 [36]: > 100 µM (inactive)
- GI50 [38]: > 100 µM (inactive)
- GI50 [39]: > 100 µM (inactive)
- GI50 [55]: > 100 µM (inactive)
- GI50 [40]: > 100 µM (inactive)
- GI50 [41]: > 100 µM (inactive)
- GI50 [42]: > 100 µM (inactive)
- GI50 [43]: > 100 µM (inactive)
- GI50 [44]: > 100 µM (inactive)
- GI50 [45]: > 100 µM (inactive)
- GI50 [56]: > 100 µM (inactive)
- GI50 [57]: > 100 µM (inactive)
- GI50 [46]: > 100 µM (inactive)
- GI50 [58]: > 100 µM (inactive)
- GI50 [47]: > 100 µM (inactive)
- GI50 [48]: > 100 µM (inactive)
- GI50 [49]: > 100 µM (inactive)
- GI50 [50]: > 100 µM (inactive)
- GI50 [51]: > 100 µM (inactive)
